Measurements published in patent US10434101B2, “Heterocyclic compounds and uses thereof” (Celgene CAR LLC, priority 2010, dated 2019).
Read-outs that look alike come from different tables or passages of the source.

Experiments:
EGFR-WT = EGFR-WT (Homo sapiens (Human), UniProt P00533); assay: Omnia assay, potency against EGFR (WT) active enzyme; format: biochemical; details: [EGFR-WT]=5 nM, [ATP]=15 uM, 30 min pre-incubation
Procedure: Kinase reactions were started with the addition of 45 μL of the ATP/Tyr-Sox peptide substrate mix and monitored every 71 seconds for 60 minutes at λex360/λem485 in a Synergy^4 plate reader from BioTek (Winooski, Vt.).

A431 cells (WT EGFR) = assay: Cell proliferation (CellTiter Glo, 72 hr) in A431 cells; format: cell-based; details: Homo sapiens, read-out: WT EGFR GI50
Procedure: (§1) A431 human epidermoid carcinoma, H1975 human NSCLC and HCC827 human NSCLC adenocarcinoma cells were obtained from the American Type Culture Center (Manassas, Va.). A431 cells were grown in DMEM (Invitrogen, Carlsbad, Calif.) supplemented with 10% FBS (HyClone, South Logan, Utah) and 1% Penicillin-Streptomycin (P/S, Lonza, Walkersville, Md.).
(§2) Cells were plated in Growth Media supplemented with 5% FBS and 1% P/S at a density of 3,000 cells per well in 96 well tissue culture plates (Corning). […] Growth inhibition (GI50) values were determined by Graph Pad Prism.

[1] = system: H1975 cells (EGFR L858R/T790M); assay: Cell proliferation (CellTiter Glo, 72 hr) in H1975 cells; format: cell-based, human; details: for GI50: Homo sapiens, read-out: H1975 GI50
Procedure: as §1, §2

[2] = system: HCC827 cells (EGFR delE746-A750); assay: Cell proliferation (CellTiter Glo, 72 hr) in HCC827 cells; format: cell-based, human; details: for GI50: Homo sapiens, read-out: HCC827 GI50
Procedure: as §1, §2

[3] = biological target: EGFR double mutation L858R/T790M (H1975 cells) (Homo sapiens (Human), UniProt P00533, L858R/T790M); assay: Phospho-EGFR signaling (immunoblotting, 1 hr) in H1975 cells; format: cell-based; details: signaling EC50 WT (A431) / H1975
Procedure: as §1
(§3) All primary antibodies were obtained from Cell Signaling (Danvers, Mass.) and used at 1:1000. Secondary antibodies were used at 1:10,000. Goat anti-mouse IgG IRDye 800CW antibody was obtained from LiCor Biosciences (Lincoln, Nebr.) and goat anti-rabbit IgG Alexa Fluor 680 was obtained from Invitrogen.
(§4) Cells were grown in 12-well plates (Corning, Coring, N.Y.) to 90% confluence and then incubated in low-serum (0.1% FBS) media for 16-18 hr. […] A431 cells were then stimulated with 50 ng/ml EGF (Peprotech, Rocky Hill, N.J.) for 15 min. After treatment, cell monolayers were washed with cold PBS (Invitrogen) and immediately lysed by scrapping into 60 uL cold Cell Extraction Buffer (Invitrogen) supplemented with Complete Protease inhibitors (Roche, Indianapolis, Ind.) and PhosphoSTOP (Roche) phosphatase inhibitors.
(§5) Phospho-protein signals were quantitated using Odyssey Infrared Imaging (Li-Cor Biosciences).
(§6) To assess phosphor-EGFR signaling, blots were probed with rabbit anti-Phospho-EGFR (Y1068) and mouse total anti-EGFR antibodies. Phospho-EGFR signal was normalized to total EGFR expression for each sample. […] Normalized data was fitted using a sigmoidal curve analysis program (Graph Pad Prism version 5) with variable Hill slope to determine the EC50 values.

[4] = biological target: EGFR delE746-A750 deletion mutation (HCC827 cells) (Homo sapiens (Human), UniProt P00533, DEL746-750); assay: Phospho-EGFR signaling (immunoblotting, 1 hr) in HCC827 cells; format: cell-based; details: signaling EC50 WT (A431) / HCC827
Procedure: as §1, §3, §4, §5, §6

C=CC(=O)Nc1cccc(Nc2nc(Nc3ccc(N4CCOCC4)cc3OC)ncc2Cl)c1 [Compound I-15, N-(3-(5-chloro-2-(2-methoxy-4-morpholinophenylamino)pyrimidin-4-ylamino)phenyl)acrylamide]
IC50 (EGFR-WT): 0.03 to 0.1 µM | GI50 (A431 cells (WT EGFR); A-431, A431 cells, 72 hr): > 1 µM | GI50 ([1]; NCI-H1975, H1975 cells, 72 hr): 0.5 to 1 µM | Ratio WT/mutant (H1975) ([1]; proliferation GI50 WT (A431) / H1975): >1 | GI50 ([2]; HCC827 cells, 72 hr): 0.1 to 0.5 µM | Ratio WT/mutant (HCC827) ([2]; proliferation GI50 WT (A431) / HCC827): >10

C=CC(=O)Nc1cccc(Oc2nc(Nc3ccc(N4CCN(C(=O)OC(C)(C)C)CC4)cc3OC)ncc2Cl)c1 [Compound I-46, tert-butyl 4-(4-(4-(3-acrylamidophenoxy)-5-chloropyrimidin-2-ylamino)-3-methoxyphenyl)piperazine-1-carboxylate]
Ratio WT/mutant (H1975) [3]: >10 | Ratio WT/mutant (HCC827) [4]: >50 | GI50 (A431 cells (WT EGFR); A-431, 72 h): > 1 µM | GI50 ([1]; NCI-H1975, 72 h): 0.5 to 1 µM | GI50 ([2]; HCC827, 72 h): 0.1 to 0.5 µM
